The values below come from ChEMBL document CHEMBL1201862, “PubChem BioAssay data set” (2004).

Each structure is given as a SMILES string.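 A five-concentration, 48-hour dose response in 96-well plates underlies each endpoint, interpolated linearly between surrounding concentrations. At the GI50, growth is halved.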 The source made the active and inactive calls. Cut-off read from the data, not from the text of the source: active = GI50 up to about 1.1 µM and inactive = higher.

Among the test systems are BT-549; M19-MEL; SNB-78; HOP-18; KM-20L2; LXFL 529; DMS-114; DMS-273.
Assay in all cases: NCI-60 cell line screen, 48 h

On to `COc1cc(C2CC(C)(Nc3ccccc3)Oc3cc4c(cc32)OCO4)cc(OC)c1OC` (configuration not stated), for which, in the test with BT-549, the GI50 is 0.506 µM (active). The same measure, in the same setting: with `COC(=O)Cc1ccc2c(c1)Sc1ccc(CC(=O)OC)cc1N2C` the figure was 16.1 µM (inactive); with `Cc1csc2n(C)c(=O)c3ccccc3[n+]12`, 79.4 µM (inactive); with `CCC(C=O)P1(=O)OC(C)(C)CN1C(C)(C)C` (configuration not stated), > 100 µM (inactive).

As for `NCCNCCNCc1c2ccccc2c(CNCCNCCN)c2ccccc12`, the GI50 is 59 µM (inactive) in the test on M19-MEL; 98.6 µM (inactive) in the test on SNB-78; 49.8 µM (inactive) in the test with HOP-18; 41.4 µM (inactive) in the test with KM-20L2; 57.8 µM (inactive) in the test on LXFL 529; 46.9 µM (inactive) with DMS-114. In the case of `O=C1OC2CCCC[C@@H]2C2C[C@]34CCCCC3[C@@H](C(=O)O4)C12` (some centres not stated), the GI50 in the test with M19-MEL, in the test with SNB-78, in the test on HOP-18, with KM-20L2, in the test on LXFL 529 and in the test with DMS-114 was > 100 µM (inactive) throughout.

With `CC(C)CCCC(C)[C@H]1CC[C@H]2NCCCC[C@]12C` (some centres not stated), the GI50 in the test on BT-549 is 9.38 µM (inactive).

For `COc1c2cc(C(C)(C)C)cc1Cc1cccc(c1OCc1cccc([N+](=O)[O-])c1)Cc1cc(C(C)(C)C)cc(c1OC)Cc1cccc(c1OCc1cccc([N+](=O)[O-])c1)Cc1cc(C(C)(C)C)cc(c1OC)Cc1cccc(c1OCc1cccc([N+](=O)[O-])c1)C2`, the GI50 with BT-549 was 0.005 µM (active). As for `O=C1C(Cl)=C(N2CCN(CCOCCO)CC2)C(=O)c2ccccc21`, the GI50 was 3.82 µM (inactive) in the test with M19-MEL; 15.3 µM (inactive) in the test on SNB-78; 16.3 µM (inactive) with HOP-18; 18 µM (inactive) in the test with KM-20L2; 16.9 µM (inactive) with DMS-273; 1.79 µM (inactive) in the test on LXFL 529. `CCOC(=O)c1nc2c3c(ncn2n1)Oc1c(c(-c2ccccc2)nn1-c1ccccc1)C3c1ccc(OC)c(OC)c1` (configuration not stated): the GI50 in the test with BT-549 was 36.3 µM (inactive). The same measure, in the same setting: the value for `CC(=O)NC(=N/N=C1/C(=O)Nc2ccc(C)cc21)NC(C)=O` was > 100 µM (inactive); that for `COC(=O)c1c(OC(C)=O)ccc2c1c1cc3ccccc3c(OC(C)=O)c1n2C` was 14.6 µM (inactive); that for `COc1ccc2[nH]c3c(C)c4ccnc(NCCCN(C)CCCNc5ccc([N+](=O)[O-])c6[nH]c7ccccc7c(=O)c56)c4c(C)c3c2c1` was 0.678 µM (active). As to `O=C(c1ccc(Cl)cc1)N(C(=S)N1CCN(c2ccccc2)CC1)c1ccccc1`, the GI50 with M19-MEL, in the test with SNB-78, in the test on HOP-18, with KM-20L2, in the test on DMS-273 and in the test with LXFL 529 was > 100 µM (inactive) throughout. Turning to `COc1cc(OC)c2c(=O)cc(-c3ccccc3F)[nH]c2c1`, the GI50 in the test on BT-549 was > 100 µM (inactive). For the compound `CSC1(C)CC2C(CC1N1CCCCC1)C2(C)C` (configuration not stated), the GI50 in the test on M19-MEL, in the test with SNB-78, in the test with HOP-18, in the test with DMS-273 and in the test on LXFL 529 was > 100 µM (inactive) each time. As for `COc1cc2c(c(O)c1OC)C(=O)C1CCC(=O)N1C2c1cccc2ccccc12` (configuration not stated), the GI50 with BT-549 is 45 µM (inactive). Take `COc1cccc(C2c3cc4c(cc3OC(NNC(N)=O)C2C)OCO4)c1OC` (configuration not stated): the GI50 with BT-549 was 20.1 µM (inactive). Consider `C1CCN2CC34CC(CC5CCCN(C6CCCC3N6)C54)C2C1` (configuration not stated), for which, in the test with BT-549, the GI50 is > 100 µM (inactive). As to `c1ccc(C2OCC(OC3CCCCO3)CO2)cc1` (configuration not stated), the GI50 in the test on BT-549 is > 100 µM (inactive). `COc1ccc(C(C)NNC(=O)c2cc[n+]([BH2-]C#N)cc2)cc1F` (configuration not stated): the GI50 in the test with BT-549 was > 100 µM (inactive). `O=c1oc2c(Cl)cc(Cl)cc2cc1C1=CSC2=NCCN12`: the GI50 with BT-549 is 26 µM (inactive). For the compound `CN(C)c1ccc(-c2nc(-c3cc4c(ccc5ccccc54)oc3=O)cs2)cc1`, the GI50 with BT-549 was > 100 µM (inactive). As for `COc1ccc(CSc2ccccc2Cn2cccc2)cc1OC`, in the test with BT-549, the GI50 is 46 µM (inactive).

As to `O=[N+]([O-])C(/C(Cl)=C(/Cl)N1CCOCC1)=C1\Nc2ccccc2O1`, in the test with BT-549, the GI50 is > 100 µM (inactive). On to `O=C(Nc1cc(Cl)c(I)c(Cl)c1)C(F)(F)F`, for which, in the test with BT-549, the GI50 is 25.9 µM (inactive). Same read-out and setting: with `CC/C(N)=N\NC(=O)OC(C)(C)C` the figure was > 100 µM (inactive). Consider `COc1ccc2c3c(c(C(=O)O)oc13)CCC2`, for which the GI50 in the test on M19-MEL, with SNB-78, in the test with DMS-273, in the test with LXFL 529 and in the test with DMS-114 was > 100 µM (inactive) throughout. In the case of `COc1cc(C2c3cc4c(cc3OC(NNc3ccccc3)C2C)OCO4)cc(OC)c1OC` (configuration not stated), in the test with BT-549, the GI50 was 1.01 µM (active). Turning to `CCCS(=O)(=O)/C(=C(\c1ccc(Br)cc1)S(=O)(=O)CCC)c1ccc(Br)cc1`, the GI50 with M19-MEL, with SNB-78, with HOP-18, in the test with KM-20L2, with DMS-273 and with LXFL 529 was > 10 µM (inactive) throughout. With `COc1ccc(C2c3cc4c(cc3OC3(OC)COC(=O)C23)OCO4)c(OC)c1` (configuration not stated), the GI50 in the test on BT-549 is 6.56 µM (inactive). `CCOC(=O)CC/C(=N/Nc1ccc(Cl)cc1[N+](=O)[O-])C(=O)OCC`: the GI50 with BT-549 is > 100 µM (inactive). Turning to `CCC/C=C/C=C/C(=O)OC1C(C)C2(O)C3C=C(C)C(=O)C3CC(COC(C)=O)=CC2C2C(C)(C)C12OC(=O)C(C)C` (configuration not stated), the GI50 in the test on BT-549 is 20.7 µM (inactive).

Consider `N=c1c2c(=S)n(-c3ccccc3)c(=S)n(-c3ccccc3)c2nc(SCCN2CCOCC2)n1-c1ccccc1`, for which, in the test with BT-549, the GI50 is 1.98 µM (inactive).

On to `O=C(CC(=O)C(=O)CC(=O)OCc1ccccc1)OCc1ccccc1`, for which the GI50 in the test with M19-MEL, in the test with KM-20L2, in the test on LXFL 529 and in the test on DMS-114 was > 100 µM (inactive) each time. `Cc1cn(C2CC(O)C(Cn3nncc3Cn3nc(Br)c(=O)[nH]c3=O)O2)c(=O)[nH]c1=O` (configuration not stated): in the test with BT-549, the GI50 is > 100 µM (inactive). Consider `Cc1c(C#N)c2nnn(-c3ccccc3)c(=O)n2c1-c1ccccc1`, for which, in the test on BT-549, the GI50 is 5.42 µM (inactive).

Turning to `COc1ccc(-n2c(SC(CN3CCOCC3)CN3CCCC3=O)nc3ccccc3c2=O)cc1` (configuration not stated), the GI50 in the test with BT-549 is > 100 µM (inactive). As to `CCOP(=O)(OCC)c1c(C(=O)OC)cc(=O)[nH]c1-c1ccc(C)cc1`, in the test on BT-549, the GI50 was 7.71 µM (inactive). On to `S=C=NC1CCC(c2cc3ccccc3s2)(N2CCCCC2)CC1` (configuration not stated), for which the GI50 in the test on BT-549 is 2.09 µM (inactive). On the same count and under the same terms, with `O=C1Nc2cc([N+](=O)[O-])ccc2C(=O)N2CCC[C@@H]12` the figure was > 100 µM (inactive); with `COC(=O)C(CCSC)NC(=O)CNC(=O)CSc1nnc(COc2ccc(Cl)cc2)n1-c1ccccc1` (configuration not stated), 16.9 µM (inactive); with `O=C(O)c1ccc(Nc2nc3cc(C(F)(F)F)ccc3n3cccc23)cc1`, 35.7 µM (inactive). Still for that read-out and setting: the value for `CCOc1cc(/C=N/c2ccc(Oc3ccc(Cl)cc3)c(Cl)c2)ccc1O` was 17.8 µM (inactive); that for `COc1cc(C2c3cc4c(cc3OC(C)(N3CCCC3)C2C)OCO4)cc(OC)c1OC` (configuration not stated) was 0.232 µM (active); that for `N#CC1=C(S)N(C2OC(CO)C(O)C(O)C2O)C(c2ccccc2)=CC1c1ccccc1` (configuration not stated) was 55.2 µM (inactive).
